Results reported in patent publication US5457092A, “Methods of promoting bone growth in mammals comprising administration of modified parathyroid hormone” (Gesellschaft fur Biotechnologische Forschung mbH (GBF), priority 1987, dated 1995).

How the values were obtained:
[1] = test system: ROS 17/2.8 osteoblast-like cells; assay: Cyclic AMP production in ROS 17/2.8 osteoblast-like cells; format: cell-based, rat; conditions: 400 nM; control 29 ± 5.2 pmol/mg of protein
Description: When cultures of the widely used model for osteoblasts, the osteoblast-likeclone of rat osteosarcoma, ROS 17/2.8 (Endocrinology (Baltimore), 107 (1980) 1494-1503=12; Majeska et al.), were incubated with full-length PTH and PTH fragments (Table 4), cyclic AMP production was stimulated only by bPTH(1-84) and hPTH(1-34), whereas hPTH(25-39), hPTH(27-48), hPTH(28-48) and hPTH(34-47) were ineffective.

[2] = test system: osteoblast enriched rat embryo calvaria cell cultures; assay: CK specific activity in rat embryo calvaria cell cultures; format: cell-based; conditions: 100 nM; 24 h; control 457 ± 46 nmol/min per mg of protein
Description: (§1) FIG. 10 is a graphical representation showing the dose dependent stimulation by bPTH (1-84) of osteoblast enriched rat embryo calvaria cell cultures. Experimental details for the determination of cyclic AMP (.quadrature.) (15 min after stimulation) and incorporation of [^3 H]thymidine into DNA ( ) and CK ( ) specific activity (24 h after stimulation) are given below. The results are means ±S.E.M., N≥5. In several cases the S.E.M. was less than the size of the symbol. Control values were: cyclic AMP, 25±5 pmol/mg of protein; DNA, 240±30 c.p.m./μg of DNA; CK, 200±20 nmol/min per mg of protein. Statistical significance of differences between treated and corresponding control groups by Student's T test: *P<0.05; **P<0.01.
(§2) Rat calvaria cultures were treated with fragments of PTH derived from the central portion of the molecule.

[3] = test system: osteoblast enriched rat embryo calvaria cell cultures; assay: Cyclic AMP production in rat embryo calvaria cell cultures; format: cell-based; conditions: 100 nM; 15 min; control 29 ± 2.9 pmol/mg of protein
Description: as §1, §2

[4] = test system: ROS 17/2.8 osteoblast-like cells; assay: CK specific activity in ROS 17/2.8 osteoblast-like cells; format: cell-based, rat; conditions: 400 nM; control 698 ± 70 nmol/min per mg of protein
[5] = test system: ROS 17/2.8 osteoblast-like cells; assay: DNA synthesis in ROS 17/2.8 osteoblast-like cells; format: cell-based, rat; conditions: 400 nM; control 392 ± 58 c.p.m./μg of DNA
[6] = test system: osteoblast enriched rat embryo calvaria cell cultures; assay: DNA synthesis ([3H]thymidine incorporation) in rat embryo calvaria cell cultures; format: cell-based
Description: as §1

[7] = test system: chondrocytes from sterna of 16-day-old embryonic chicks; assay: Stimulation of DNA synthesis in chondrocytes by PTH fragments (Table 1); format: cell-based, chick; conditions: for [^3 H]thymidine incorporation: 4 h, control 139 ± 6; for E/C: stimulated / non-induced control cells
Description: Chondrocytes were isolated from sterna of 16-day-old embryonic chicks according to J. Biol. Chem., 261 (1986) 7997-8001 (10; Yasui et al.) with some modifications. Collagenase was dissolved in Hanks' balanced salt solution (0.4 mM Na2 HPO4, 140 mN NaCl, 5.3 mM KCl, 0.4 mM MgSO4, 1.3 mM CaCl2, 0.4 mM KH2 PO4, 0.5 mM MglC2, 5 mM glucose, 0.05% gentamicin) at a concentration of 286 units/ml. Sterna were treated repeatedly for 30 min with collagenase solution at 37° C. Cells first released by this procedure were discarded because of their very poor responsiveness towards PTH. The collagenase treatment was subsequently repeated leading to a highly homogenous cell population of chondrocytes. The cells obtained by a second collagenase treatment were collected by centrifugation (1000 rpm, 10 min), washed twice with medium (Dulbecco's modified Eagle's medium, GIBCO, supplemented with NaHCO3 (45 mM), glutamine (2 mM), penicillin G/streptomycin (65 mg/1 and 100 mg/l, respectively), Hepes (10 mM, pH 7.2), and FCS (10% v/v) and counted.
The DNA synthesis rate was assayed in monolayer culture by the incorporation of ]^3 H]thymidine into perchloric acid-precipitable material. […] After 17 h, the medium was replaced by 200 μl of serum-free medium. After 4 days, chondrocytes were incubated for 4 h with the appropriate effector and 1μ Ci of [^3 H]thymidine. Subsequently, medium was removed and the cells were washed twice with 200 μl of phosphate-buffered saline (PBS: 137 mM NaCl, 2.7 mN KCl, 1.5 mM KH2 PO4, 0.8 mN Na2 HPO4, pH 7.0). Then cells were lysed by 100 μl of 2% (v/v) Nonidet P- 40 and 2% (w/v) sodium dodecyl sulfate treatment and the perchloric acid-insoluble material was precipitated by adding an equal volume of ice-cold 2% (w/v) perchloric acid in the presence of 1% herring sperm DNA as carrier. After storage for 10 min at -20° C., the precipitated material of each well was transferred to glass fiber filters with a Scatron--As semiautomatic cell harvester. Filters were dried at 80° C. for 20 min, transferred into scintillation vials, and 2 ml of scintillation mixture (scintillator 299; United Technology Pachard) were added. Radioactivity of the samples was determined with a β counter (Minimax; United Technology Pachard). Each test consisted of 5 up to 10 identically treated wells and was repeated at least twice with freshly prepared chondrocytes.
The incorporation of [^3 H]thymidine by non-induced control cells and by stimulated cells is shown by C and E, respectively. The results shown mean ±S.E. for n parallel cell cultures.

## hPTH(28-47): PTH fragment 28-47, human source (LQDVHNFVALGAPLAPRDAG; Parathyroid hormone; UniProt P01270 59-78, looked up, fragment)
[1]
  Cyclic AMP, effect of fragment (experimental value/control value): 1.03 ± 0.16
[2]
  CK specific activity, effect of fragment (experimental value/control value): 2.18 ± 0.12
[3]
  Cyclic AMP concentration, effect of fragment (experimental value/control value): 0.52 ± 0.39
[4]
  CK specific activity, effect of fragment (experimental value/control value): 1.66 ± 0.11
[5]
  [^3 H]Thymidine incorporation, effect of fragment (experimental value/control value): 1.44 ± 0.11
[6]
  stimulation of DNA synthesis (in words): less
[6]; 100 nM, 24 h, control 624 ± 73 c.p.m./μg of DNA
  [3H)Thymidine incorporation, effect of fragment (experimental value/control value): 2.11 ± 0.09
[7]; 4.5 × 10^-5 mol/l
  [^3 H]thymidine incorporation: 276 ± 36 cpm
  E/C: 1.99
[7]; 4.5 × 10^-6 mol/l
  [^3 H]thymidine incorporation: 202 ± 17 cpm
  E/C: 1.45
[7]; 4.5 × 10^-7 mol/l
  [^3 H]thymidine incorporation: 205 ± 22 cpm
  E/C: 1.47
[7]; 4.5 × 10^-8 mol/l
  [^3 H]thymidine incorporation: 196 ± 25 cpm
  E/C: 1.41
